For assay [1], the system named is rabbit serum obtained by immunizing a rabbit with the SARS-CoV strain Frankfurt 1. In kind it is binding. Set-up: Binding of a rabbit serum to linear peptides / Binding of a rabbit serum to looped peptides / Rabbit serum linear peptides / Rabbit serum looped peptides / Binding of a rabbit serum to linear peptides of protein N of SARS-CoV Urbani (Rabbit serum linear peptides) / Binding of a rabbit serum to looped/cyclic peptides of protein N of SARS-CoV Urbani (Rabbit serum looped peptides): unit not given here.

In assay [2] the test system is antibodies in sera from SARS patients (sera 1a, 1b, 2, 6, 37, 62, London, SARS-yellow, SARS-green). In kind it is binding, human. Further details: Binding of serum 6 to linear peptides of protein X1 of SARS-CoV Urbani / Binding of serum 37 to linear peptides of protein X1 of SARS-CoV Urbani / Binding of serum 6 to looped/cyclic peptide (PEPSCAN-ELISA) / Binding of serum 37 to looped/cyclic peptide (PEPSCAN-ELISA) / Binding of serum 37 to looped/cyclic peptides of protein X1 of SARS-CoV Urbani / Binding of serum 6 to linear peptides of protein X2 / Binding of serum 37 to linear peptides of protein X2 / Binding of serum 37 to looped/cyclic peptides of protein X2 of SARS-CoV Urbani / Binding of serum 6 to linear peptides of protein M of SARS-CoV Urbani / Binding of serum 37 to linear peptides of protein M of SARS-CoV Urbani / Binding of serum 6 to looped/cyclic peptides of protein M of SARS-CoV Urbani / Binding of serum 37 to looped/cyclic peptides of protein M of SARS-CoV Urbani / Binding of serum 6 to linear peptides of protein X3 of SARS-CoV Urbani / Binding of serum 37 to linear peptides of protein X3 of SARS-CoV Urbani / Binding of serum 37 to looped/cyclic peptides of protein X3 of SARS-CoV Urbani / Binding of serum 6 to linear peptides of protein X4 of SARS-CoV Urbani / Binding of serum 37 to linear peptides of protein X4 of SARS-CoV Urbani / Binding of serum 37 to looped/cyclic peptides of protein X4 of SARS-CoV Urbani / Binding of serum 6 to linear peptides of protein X5 of SARS-CoV Urbani / Binding of serum 37 to linear peptides of protein X5 of SARS-CoV Urbani / Binding of serum 37 to looped/cyclic peptides of protein X5 of SARS-CoV Urbani / Binding of serum 6 to linear peptides of protein N of SARS-CoV Urbani / Binding of serum 37 to linear peptides of protein N of SARS-CoV Urbani / Binding of serum 6 to linear peptide (PEPSCAN-ELISA) / Binding of serum 1a to looped/cyclic peptides of protein N of SARS-CoV Urbani / Binding of serum 1b to looped/cyclic peptides of protein N of SARS-CoV Urbani / Binding of serum 2 to looped/cyclic peptides of protein N of SARS-CoV Urbani / Binding of serum 6 to looped/cyclic peptides of protein N of SARS-CoV Urbani / Binding of serum 37 to looped/cyclic peptides of protein N of SARS-CoV Urbani / Binding of serum 62 to looped/cyclic peptides of protein N of SARS-CoV Urbani / Binding of serum London to looped/cyclic peptides of protein N of SARS-CoV Urbani / Binding of serum SARS-green to looped/cyclic peptides of protein N of SARS-CoV Urbani: unit not given here.

In assay [3] the test system is control sera (pooled serum of ten healthy LUMC hospital workers; commercial negative donor pooled serum from the Dutch bloodbank). In kind it is binding, human. Further details: Binding of Control serum LUMC to linear peptides / Binding of Control serum Blood-bank to linear peptides / Binding of Control serum LUMC to looped peptides / Binding of Control Serum Blood-Bank to Looped peptides / Binding of Control serum LUMC to linear peptides of the protein M of SARS-CoV Urbani / Binding of Control serum Blood-bank to linear peptides of the protein M of SARS-CoV Urbani / Binding of Control serum LUMC to looped peptides of the protein M of SARS-CoV Urbani / Binding of Control Serum Blood-Bank to Looped peptides of the protein M of SARS-CoV Urbani: unit not given here.

Turning to SLLKTHRMCKYTQST, in assay [1], the “Binding of a rabbit serum to linear peptides” value is listed as 0.3 and the “Binding of a rabbit serum to looped peptides” value stood at 0.3. In assay [2], the “Binding of serum 1a to linear peptides of protein X2” value is 0.8, the “Binding of serum 1a to looped/cyclic peptides of protein X2 of SARS-CoV Urbani” value was determined as 0.3, the “Binding of serum 1b to linear peptides of protein X2” value is on record as 0.6 and the “Binding of serum 1b to looped/cyclic peptides of protein X2 of SARS-CoV Urbani” value is listed as 0.2. Besides, in assay [2], the “Binding of serum 2 to linear peptides of protein X2” value is reported as 0.6, the “Binding of serum 2 to looped/cyclic peptides of protein X2 of SARS-CoV Urbani” value was determined as 0.1, the “Binding of serum 6 to linear peptides of protein X2” value was 0.6 and the “Binding of serum 6 to looped/cyclic peptides of protein X2 of SARS-CoV Urbani” value came to 0.2. Besides, in assay [2], the “Binding of serum 37 to linear peptides of protein X2” value came to 0.6, the “Binding of serum 37 to looped/cyclic peptides of protein X2 of SARS-CoV Urbani” value is 0.3, the “Binding of serum 62 to linear peptides of protein X2” value stood at 0.7 and the “Binding of serum 62 to looped/cyclic peptides of protein X2 of SARS-CoV Urbani” value is on record as 0.4. Besides, in assay [2], the “Binding of serum London to linear peptides of protein X2” value turned out to be 0.6, the “Binding of serum London to looped/cyclic peptides of protein X2 of SARS-CoV Urbani” value is given as 0.2, the “Binding of serum SARS-green to linear peptides of protein X2” value stood at 0.7 and the “Binding of serum SARS-green to looped/cyclic peptides of protein X2 of SARS-CoV Urbani” value was determined as 0.1. Besides, in assay [2], the “Binding of serum SARS-yellow to linear peptides of protein X2” value worked out at 0.7 and the “Binding of serum SARS-yellow to looped/cyclic peptides of protein X2 of SARS-CoV Urbani” value is 0.2. Moreover, in assay [3], the “Binding of Control Serum Blood-Bank to Looped peptides” value is on record as 0.4, the “Binding of Control serum Blood-bank to linear peptides” value is listed as 0.9, the “Binding of Control serum LUMC to linear peptides” value came out at 0.8 and the “Binding of Control serum LUMC to looped peptides” value came to 0.4.

Take SLLKVTAFQHQNSKK: in assay [1], the “Binding of a rabbit serum to linear peptides” value is given as 0.1 and the “Binding of a rabbit serum to looped peptides” value is recorded as 0.3. Besides, in assay [2], the “Binding of serum 1a to linear peptides of protein X2” value came out at 0.4, the “Binding of serum 1a to looped/cyclic peptides of protein X2 of SARS-CoV Urbani” value was found to be 0.3, the “Binding of serum 1b to linear peptides of protein X2” value is listed as 0.0 and the “Binding of serum 1b to looped/cyclic peptides of protein X2 of SARS-CoV Urbani” value is reported as 0.2. For the same sequence, in assay [2], the “Binding of serum 2 to linear peptides of protein X2” value came to 0.1, the “Binding of serum 2 to looped/cyclic peptides of protein X2 of SARS-CoV Urbani” value stood at 0.1, the “Binding of serum 6 to linear peptides of protein X2” value is 0.0 and the “Binding of serum 6 to looped/cyclic peptides of protein X2 of SARS-CoV Urbani” value was found to be 0.1. For the same sequence, in assay [2], the “Binding of serum 37 to linear peptides of protein X2” value was 0.4, the “Binding of serum 37 to looped/cyclic peptides of protein X2 of SARS-CoV Urbani” value is 0.2, the “Binding of serum 62 to linear peptides of protein X2” value was 0.1 and the “Binding of serum 62 to looped/cyclic peptides of protein X2 of SARS-CoV Urbani” value came out at 0.4. Further, in assay [2], the “Binding of serum London to linear peptides of protein X2” value stood at 0.1, the “Binding of serum London to looped/cyclic peptides of protein X2 of SARS-CoV Urbani” value stood at 0.1, the “Binding of serum SARS-green to linear peptides of protein X2” value was determined as 0.0 and the “Binding of serum SARS-green to looped/cyclic peptides of protein X2 of SARS-CoV Urbani” value is on record as 0.1. For the same sequence, in assay [2], the “Binding of serum SARS-yellow to linear peptides of protein X2” value worked out at 0.0 and the “Binding of serum SARS-yellow to looped/cyclic peptides of protein X2 of SARS-CoV Urbani” value amounted to 0.2. Besides, in assay [3], the “Binding of Control Serum Blood-Bank to Looped peptides” value turned out to be 0.4, the “Binding of Control serum Blood-bank to linear peptides” value is given as 0.2, the “Binding of Control serum LUMC to linear peptides” value was 0.0 and the “Binding of Control serum LUMC to looped peptides” value was 0.3.

As to SLSLHKLLQTLVLKM, in assay [1], the “Binding of a rabbit serum to linear peptides” value was determined as 0.1 and the “Binding of a rabbit serum to looped peptides” value was determined as 0.4. Moreover, in assay [2], the “Binding of serum 1a to linear peptides of protein X2” value is recorded as 0.6, the “Binding of serum 1a to looped/cyclic peptides of protein X2 of SARS-CoV Urbani” value amounted to 0.5, the “Binding of serum 1b to linear peptides of protein X2” value was determined as 0.5 and the “Binding of serum 1b to looped/cyclic peptides of protein X2 of SARS-CoV Urbani” value is 0.5. Moreover, in assay [2], the “Binding of serum 2 to linear peptides of protein X2” value stood at 0.3, the “Binding of serum 2 to looped/cyclic peptides of protein X2 of SARS-CoV Urbani” value is given as 0.3, the “Binding of serum 6 to linear peptides of protein X2” value amounted to 0.5 and the “Binding of serum 6 to looped/cyclic peptides of protein X2 of SARS-CoV Urbani” value is 0.9. In assay [2], the “Binding of serum 37 to linear peptides of protein X2” value was 0.4, the “Binding of serum 37 to looped/cyclic peptides of protein X2 of SARS-CoV Urbani” value came to 0.4, the “Binding of serum 62 to linear peptides of protein X2” value is 0.5 and the “Binding of serum 62 to looped/cyclic peptides of protein X2 of SARS-CoV Urbani” value was 0.5. In assay [2], the “Binding of serum London to linear peptides of protein X2” value is 0.4, the “Binding of serum London to looped/cyclic peptides of protein X2 of SARS-CoV Urbani” value is listed as 1.2, the “Binding of serum SARS-green to linear peptides of protein X2” value came to 0.6 and the “Binding of serum SARS-green to looped/cyclic peptides of protein X2 of SARS-CoV Urbani” value came out at 0.3. In assay [2], the “Binding of serum SARS-yellow to linear peptides of protein X2” value worked out at 0.3 and the “Binding of serum SARS-yellow to looped/cyclic peptides of protein X2 of SARS-CoV Urbani” value was 0.7. Moreover, in assay [3], the “Binding of Control Serum Blood-Bank to Looped peptides” value came to 0.6, the “Binding of Control serum Blood-bank to linear peptides” value is on record as 0.4, the “Binding of Control serum LUMC to linear peptides” value was determined as 0.3 and the “Binding of Control serum LUMC to looped peptides” value was found to be 0.7.

Take SNRNRFLYIIKLVFL: in assay [1], the “Rabbit serum linear peptides” value stood at 0.5 and the “Rabbit serum looped peptides” value was found to be 0.6. Further, in assay [2], the “Binding of serum 1a to linear peptides of protein M of SARS-CoV Urbani” value was determined as 0.6, the “Binding of serum 1b to linear peptides of protein M of SARS-CoV Urbani” value amounted to 0.5, the “Binding of serum 2 to linear peptides of protein M of SARS-CoV Urbani” value is listed as 0.4 and the “Binding of serum 6 to linear peptides of protein M of SARS-CoV Urbani” value is listed as 0.5. Also, in assay [2], the “Binding of serum 37 to linear peptides of protein M of SARS-CoV Urbani” value was found to be 0.4, the “Binding of serum 62 to linear peptides of protein M of SARS-CoV Urbani” value came to 0.4, the “Binding of serum London to linear peptides of protein M of SARS-CoV Urbani” value amounted to 0.3 and the “Binding of serum SARS-green to linear peptides of protein M of SARS-CoV Urbani” value is on record as 0.4. Also, in assay [2], the “Binding of serum SARS-yellow to linear peptides of protein M of SARS-CoV Urbani” value is 0.3; the “Recognition of the peptide by sera of SARS-CoV infected individuals, and form (linear, looped/cyclic) in which it is recognized” value is “recognized in looped/cyclic form”. Also, in assay [3], the “Binding of Control Serum Blood-Bank to Looped peptides of the protein M of SARS-CoV Urbani” value is 0.7, the “Binding of Control serum Blood-bank to linear peptides of the protein M of SARS-CoV Urbani” value is 0.7, the “Binding of Control serum LUMC to linear peptides of the protein M of SARS-CoV Urbani” value was found to be 0.7 and the “Binding of Control serum LUMC to looped peptides of the protein M of SARS-CoV Urbani” value was found to be 0.9.

Source of the values: patent publication US20070128217A1 (priority 2003, published 2007).
